The values below come from paper PMC7894522, “Structure Based Design of Bicyclic Peptide Inhibitors of RbAp48” (Angewandte Chemie (International Ed. in English), 2020).

The target in this test is RbAp48 (Homo sapiens, UniProt Q09028). The test is described as follows: Competitive fluorescence polarization (FP) assay using complex of peptide 1 and RbAp48. It counts as binding. The conditions noted are these: competitive FP, RbAp48 15 nM, read-out: IC50. Details: Full length RbAp48 was cloned; His tag followed by 3C cleavage site (N, cleaved yes); made in house; host or cells: Sf9 insect cells. The procedure:
The binding affinity of our library of synthetic cyclic peptides was evaluated by a competitive fluorescence polarization (FP) assay using a complex formed by peptide 1 and RbAp48. To reduce the length of the peptide it was truncated to the amino acids which seemed most critical according to the crystal structure (residues 676–689, pdb:4pbz). […] We chose to use a cyclization approach to regain affinity, that is, not to induce more interactions but through minimizing the entropic penalty upon binding by reducing the flexibility of the peptide. To this end two amino acids were chosen which are facing one another in the structure (see Figure 1 B/D/E). Two peptides were designed where glutamic acid was used in position 676 (4) or position 680 (5) and lysine in position 688 for both peptides (see Table 1). The macrocycles were formed by connecting the side chains via an amide bond (see Figure 1 D/E). Peptide synthesis was performed on Rink‐amide resin using the Fmoc‐strategy incorporating Fmoc‐L‐Glu(All)‐OH and Fmoc‐L‐Lys(Alloc)‐OH at the sites for cyclization. After completion of the linear synthesis the allyl protecting groups were removed using Pd^0 catalysis and the amide link was formed by using PyBOP. […] Therefore, a range of peptides was synthesized which were cyclized using the same amino acid positions but via a cysteine alkylation strategy (see Figure 1 D/E and Table 1). In this method the residues used for cyclization are replaced with cysteine and benzylic dibromides act as crosslinkers on the unprotected peptides. ^[11] Previous research has shown that such linkers can effectively stabilize cyclic peptides and yield high affinity ligands for protein–protein interaction inhibition. ^[12] Such a linker introduces a xylene group in close vicinity of the hydrophobic patch potentially reconstituting the lost key hydrophobic interactions. To explore a variety of macrocycle conformations we used either ortho‐, meta‐ or para‐substituted dibromides to exchange the linker in both 4 and 5 (see Figure 1 D/E and Table 1). ^[13]
Protein expression and purification
RbAp48 was expressed and purified by the Dortmund Protein Facility. Full length RbAp48 was cloned into a pOPIN vector ligating it to an N-terminal His tag followed by a 3C cleavage site. The protein was expressed from Sf9 cells for 48 h. Cells were harvested and lysed and the protein was purified by loading onto a HisTrap FF crude 5 ml column followed by on-column cleavage using Precission protease. The cleaved protein was then further purified using a HiLoad 26/60 Superdex 200 column.
Fluorescence polarization assay
Fluorescence polarization assays were performed in 384 wells plates in 80 µl volumes. The assay buffer contains 20 mM Tris-HCl, 150 mM NaCl, 0.01% Tween-20 at pH 7.5. The concentration of the fluorescently labelled peptides was 1 nM plates were incubated at room temperature for 30 min before they were read on a Tecan Spark plate reader (λex = 485 nm, λem = 535 nm).
For competitive assays the same conditions were used with a tracer concentration of 1 nM was used and a protein concentration of 15 nM .
(Fluorescence polarisation rises when a labelled molecule tumbles more slowly, as on binding a larger partner.)

Setting [1] is: Table 1, tracer peptide 1 1 nM, 20 mM Tris-HCl, 150 mM NaCl, 0.01% Tween-20, pH 7.5, 30 min room temperature, lower limit set by 15 nM protein.
[2] abbreviates: Supplemental Table 2, tracer 1 nM, pH 7.5, 30 min room temperature.

Read-outs that look alike come from different tables or passages of the source. Starred links: 1 amine or outer side, 2 acyl side, 3 side chain; linkers in the order of their positions; H or OH if unused. Positions of bridges follow the written chain, without caps; N, C: chain ends. Residues, ends and D or L forms follow the SMILES beside them. Pyridine(2,6-diCH2) = c1cc(C[*:1])nc(C[*:2])c1; mXylylene = c1cc(C[*:1])cc(C[*:2])c1; oXylylene = c1ccc(C[*:2])c(C[*:1])c1; pXylylene = c1cc(C[*:2])ccc1C[*:1] Where only a bound is given, the exact number is not on record here.

Sequence of RbAp48 (Q09028 whole entry, the tested form may be a part): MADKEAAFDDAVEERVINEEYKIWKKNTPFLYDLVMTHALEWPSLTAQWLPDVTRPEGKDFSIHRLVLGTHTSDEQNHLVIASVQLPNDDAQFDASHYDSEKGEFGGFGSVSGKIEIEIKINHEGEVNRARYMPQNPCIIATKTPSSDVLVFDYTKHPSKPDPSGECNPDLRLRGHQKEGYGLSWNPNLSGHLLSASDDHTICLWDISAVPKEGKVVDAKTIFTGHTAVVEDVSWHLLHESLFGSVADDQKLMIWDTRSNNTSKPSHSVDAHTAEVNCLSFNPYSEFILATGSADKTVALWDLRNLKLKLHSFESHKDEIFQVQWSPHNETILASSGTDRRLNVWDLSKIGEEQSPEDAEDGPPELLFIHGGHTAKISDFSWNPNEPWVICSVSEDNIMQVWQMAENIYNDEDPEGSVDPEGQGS

As for `CC(=O)N[C@H]1CCC(=O)NCCCC[C@@H](C(=O)N[C@@H](C)C(N)=O)NC(=O)[C@@H]2CCCN2C(=O)[C@H](CCCCN)NC(=O)[C@H](Cc2ccc(O)cc2)NC(=O)[C@@H]2CCCN2C(=O)[C@H](CCCNC(=N)N)NC(=O)[C@H](CCCNC(=N)N)NC(=O)[C@H](C)NC(=O)[C@H](C)NC(=O)[C@H](CCCNC(=N)N)NC(=O)[C@H](CCCCN)NC(=O)[C@H]([C@@H](C)O)NC1=O` [Peptide 4] (Ac-ETKRAARRPYKPKA-NH2; lactam 1-13), the IC50 under setting [1] was 0.0477 ± 0.0125 µM.
Still for that read-out and setting: as for `CC(=O)N[C@@H](CCC(=O)O)C(=O)N[C@H](C(=O)N[C@@H](CCCCN)C(=O)N[C@@H](CCCNC(=N)N)C(=O)N[C@H]1CCC(=O)NCCCC[C@@H](C(=O)N[C@@H](C)C(N)=O)NC(=O)[C@@H]2CCCN2C(=O)[C@H](CCCCN)NC(=O)[C@H](Cc2ccc(O)cc2)NC(=O)[C@@H]2CCCN2C(=O)[C@H](CCCNC(=N)N)NC(=O)[C@H](CCCNC(=N)N)NC(=O)[C@H](C)NC1=O)[C@@H](C)O` [Peptide 5] (Ac-ETKREARRPYKPKA-NH2; lactam 5-13), the figure is 0.126 ± 0.0323 µM; as for `CC(=O)N[C@H]1CSCc2ccccc2CSC[C@@H](C(=O)N[C@@H](C)C(N)=O)NC(=O)[C@@H]2CCCN2C(=O)[C@H](CCCCN)NC(=O)[C@H](Cc2ccc(O)cc2)NC(=O)[C@@H]2CCCN2C(=O)[C@H](CCCNC(=N)N)NC(=O)[C@H](CCCNC(=N)N)NC(=O)[C@H](C)NC(=O)[C@H](C)NC(=O)[C@H](CCCNC(=N)N)NC(=O)[C@H](CCCCN)NC(=O)[C@H]([C@@H](C)O)NC1=O` [Peptide 6] (Ac-CTKRAARRPYKPCA-NH2; linker 1-13 via oXylylene), 0.0774 ± 0.0065 µM; as for `CC(=O)N[C@H]1CSCc2cccc(c2)CSC[C@@H](C(=O)N[C@@H](C)C(N)=O)NC(=O)[C@@H]2CCCN2C(=O)[C@H](CCCCN)NC(=O)[C@H](Cc2ccc(O)cc2)NC(=O)[C@@H]2CCCN2C(=O)[C@H](CCCNC(=N)N)NC(=O)[C@H](CCCNC(=N)N)NC(=O)[C@H](C)NC(=O)[C@H](C)NC(=O)[C@H](CCCNC(=N)N)NC(=O)[C@H](CCCCN)NC(=O)[C@H]([C@@H](C)O)NC1=O` [Peptide 7] (Ac-CTKRAARRPYKPCA-NH2; linker 1-13 via mXylylene), 0.0187 ± 0.0041 µM.
For the compound `CC(=O)N[C@H]1CSCc2cccc(n2)CSC[C@@H](C(=O)N[C@@H](C)C(N)=O)NC(=O)[C@@H]2CCCN2C(=O)[C@H](CCCCN)NC(=O)[C@H](Cc2ccc(O)cc2)NC(=O)[C@@H]2CCCN2C(=O)[C@H](CCCNC(=N)N)NC(=O)[C@H](CCCNC(=N)N)NC(=O)[C@H](C)NC(=O)[C@H](C)NC(=O)[C@H](CCCNC(=N)N)NC(=O)[C@H](CCCCN)NC(=O)[C@H]([C@@H](C)O)NC1=O` [Peptide 9] (Ac-CTKRAARRPYKPCA-NH2; linker 1-13 via Pyridine(2,6-diCH2)), the IC50 under setting [1] stood at 0.0349 ± 0.014 µM.
For the compound `CC(=O)N[C@@H](CCC(=O)O)C(=O)N[C@H](C(=O)N[C@@H](CCCCN)C(=O)N[C@@H](CCCNC(=N)N)C(=O)N[C@H]1CSCc2ccccc2CSC[C@@H](C(=O)N[C@@H](C)C(N)=O)NC(=O)[C@@H]2CCCN2C(=O)[C@H](CCCCN)NC(=O)[C@H](Cc2ccc(O)cc2)NC(=O)[C@@H]2CCCN2C(=O)[C@H](CCCNC(=N)N)NC(=O)[C@H](CCCNC(=N)N)NC(=O)[C@H](C)NC1=O)[C@@H](C)O` [Peptide 10] (Ac-ETKRCARRPYKPCA-NH2; linker 5-13 via oXylylene), the IC50 under setting [1] is 0.322 ± 0.0568 µM.
Turning to `CC(=O)N[C@@H](CCC(=O)O)C(=O)N[C@H](C(=O)N[C@@H](CCCCN)C(=O)N[C@@H](CCCNC(=N)N)C(=O)N[C@H]1CSCc2cccc(c2)CSC[C@@H](C(=O)N[C@@H](C)C(N)=O)NC(=O)[C@@H]2CCCN2C(=O)[C@H](CCCCN)NC(=O)[C@H](Cc2ccc(O)cc2)NC(=O)[C@@H]2CCCN2C(=O)[C@H](CCCNC(=N)N)NC(=O)[C@H](CCCNC(=N)N)NC(=O)[C@H](C)NC1=O)[C@@H](C)O` [Peptide 11] (Ac-ETKRCARRPYKPCA-NH2; linker 5-13 via mXylylene), the half-maximal inhibitory concentration (IC50) under setting [1] amounted to 0.388 ± 0.0698 µM.
Consider `CC(=O)N[C@@H](CCC(=O)O)C(=O)N[C@H](C(=O)N[C@@H](CCCCN)C(=O)N[C@@H](CCCNC(=N)N)C(=O)N[C@H]1CSCc2ccc(cc2)CSC[C@@H](C(=O)N[C@@H](C)C(N)=O)NC(=O)[C@@H]2CCCN2C(=O)[C@H](CCCCN)NC(=O)[C@H](Cc2ccc(O)cc2)NC(=O)[C@@H]2CCCN2C(=O)[C@H](CCCNC(=N)N)NC(=O)[C@H](CCCNC(=N)N)NC(=O)[C@H](C)NC1=O)[C@@H](C)O` [Peptide 12] (Ac-ETKRCARRPYKPCA-NH2; linker 5-13 via pXylylene), for which the IC50 under setting [1] came out at 2.34 ± 0.363 µM.
Still for that read-out and setting: as for `CC(=O)N[C@@H](CCC(=O)O)C(=O)N[C@H](C(=O)N[C@@H](CCCCN)C(=O)N[C@@H](CCCNC(=N)N)C(=O)N[C@H]1CSCc2cccc(n2)CSC[C@@H](C(=O)N[C@@H](C)C(N)=O)NC(=O)[C@@H]2CCCN2C(=O)[C@H](CCCCN)NC(=O)[C@H](Cc2ccc(O)cc2)NC(=O)[C@@H]2CCCN2C(=O)[C@H](CCCNC(=N)N)NC(=O)[C@H](CCCNC(=N)N)NC(=O)[C@H](C)NC1=O)[C@@H](C)O` [Peptide 13] (Ac-ETKRCARRPYKPCA-NH2; linker 5-13 via Pyridine(2,6-diCH2)), the figure is 0.147 ± 0.0107 µM.
In the case of `CC[C@H](C)[C@H](NC(=O)[C@@H]1CCCN1C(=O)[C@H](CC(C)C)NC(=O)[C@H](Cc1ccc(O)cc1)NC(=O)[C@@H]1CCCN1C(=O)[C@H](Cc1c[nH]cn1)NC(=O)[C@H](CCCNC(=N)N)NC(=O)[C@H](C)NC(=O)[C@H](C)NC(=O)[C@H](Cc1c[nH]cn1)NC(=O)[C@H](Cc1c[nH]c2ccccc12)NC(=O)[C@@H]1CCCN1C(=O)[C@H](CCCNC(=N)N)NC(=O)[C@H](CC(C)C)NC(C)=O)C(=O)N[C@@H](CC(N)=O)C(N)=O` [Peptide 14] (Ac-LRPWHAARHPYLPIN-NH2), under setting [2], the 50% inhibitory concentration (IC50) is above 10 µM.
As to `CC[C@H](C)[C@H](NC(=O)[C@@H]1CCCN1C(=O)[C@H](CC(C)C)NC(=O)[C@H](Cc1ccc(O)cc1)NC(=O)[C@@H]1CCCN1C(=O)[C@H](Cc1c[nH]cn1)NC(=O)[C@H](CCCNC(=N)N)NC(=O)[C@H](C)NC(=O)[C@H](C)NC(=O)[C@H](Cc1c[nH]cn1)NC(=O)[C@H](Cc1c[nH]c2ccccc12)NC(=O)[C@@H]1CCCN1C(=O)[C@H](CCCNC(=N)N)NC(C)=O)C(=O)N[C@@H](CC(N)=O)C(N)=O` [Peptide 15] (Ac-RPWHAARHPYLPIN-NH2), under setting [2], the IC50 is above 10 µM.
With `CC(=O)N[C@H]1CSCc2cccc(c2)CSC[C@@H](C(=O)N[C@@H](CC(N)=O)C(N)=O)NC(=O)[C@@H]2CCCN2C(=O)[C@H](CC(C)C)NC(=O)[C@H](Cc2ccc(O)cc2)NC(=O)[C@@H]2CCCN2C(=O)[C@H](Cc2c[nH]cn2)NC(=O)[C@H](CCCNC(=N)N)NC(=O)[C@H](C)NC(=O)[C@H](C)NC(=O)[C@H](Cc2c[nH]cn2)NC(=O)[C@H](Cc2c[nH]c3ccccc23)NC(=O)[C@@H]2CCCN2C(=O)[C@H](CCCNC(=N)N)NC1=O` [Peptide 16] (Ac-CRPWHAARHPYLPCN-NH2; linker 1-14 via mXylylene), under setting [2], the IC50 is above 10 µM.
On to `CC(=O)N[C@H]1CSCc2ccc(cc2)CSC[C@@H](C(=O)N[C@@H](CC(N)=O)C(N)=O)NC(=O)[C@@H]2CCCN2C(=O)[C@H](CC(C)C)NC(=O)[C@H](Cc2ccc(O)cc2)NC(=O)[C@@H]2CCCN2C(=O)[C@H](Cc2c[nH]cn2)NC(=O)[C@H](CCCNC(=N)N)NC(=O)[C@H](C)NC(=O)[C@H](C)NC(=O)[C@H](Cc2c[nH]cn2)NC(=O)[C@H](Cc2c[nH]c3ccccc23)NC(=O)[C@@H]2CCCN2C(=O)[C@H](CCCNC(=N)N)NC1=O` [Peptide 17] (Ac-CRPWHAARHPYLPCN-NH2; linker 1-14 via pXylylene), for which the IC50 under setting [2] is above 10 µM.
On the same count and under the same terms, the result for `CC(=O)N[C@H]1CSCc2cccc(c2)CSC[C@@H](C(=O)N[C@@H](CC(N)=O)C(N)=O)NC(=O)[C@@H]2CCCN2C(=O)[C@H](CC(C)C)NC(=O)[C@H](Cc2ccc(O)cc2)NC(=O)[C@@H]2CCCN2C(=O)[C@H](Cc2c[nH]cn2)NC(=O)[C@H](CCCNC(=N)N)NC(=O)[C@H](C)NC(=O)[C@H](C)NC(=O)[C@H](Cc2c[nH]cn2)NC(=O)[C@H](Cc2c[nH]c3ccccc23)NC(=O)[C@@H]2CCCN2C1=O` [Peptide 18] (Ac-CPWHAARHPYLPCN-NH2; linker 1-13 via mXylylene) reads above 10 µM.

One may read the IC50 as the concentration that inhibits the measured activity by half.
